Measured values: patent US20030049807A1, “Micro-organism possessing enantioselective and regioselective nitrile hydratase/amidase activities” (priority 2001, published 2003)
Values belong to the compound of their own block, whether it stands above or below them.

Columns and labels:
[1] = test system: nitrile-hydratase/amidase activity of the wild type strain; experiment: Nitrile-hydratase/amidase activity of the wild type parent strain after induction with valeronitrile; format: cell-based, Agrobacterium radiobacter; details: wild type strain sub-cultured with butyronitrile, induced with valeronitrile
Method: The parent strain, characterised as Agrobacterium radiobacter, was isolated from a crude bacterial extract with antibiotic activity. In order to determine activity towards nitrilic substrates, it was sub-cultured in medium containing butyronitrile and after some passages and induction with valeronitrile, a weak nitrile-hydratase/amidase activity was measured on benzoylphenylpropionitrile (BPN) of the wild type strain as such selected. To obtain a semi-constitutive strain, an aliquot of wild type parent strain was subjected to a treatment of mutagenesis, constituted by two treatment cycles with ethylmethanesulphonate, one cycle with nitrosoguanidine and two of mutagenesis with UV irradiation.

[2] = test system: nitrile hydratase/amidase activity of bacterial pellet of strain NCIMB 41108; experiment: Enzymatic activity of the whole-cell biocatalyst (wet bacterial pellet) towards nitrile/amide substrates, HPLC or GC; format: cell-based, Agrobacterium radiobacter 30″60; details: 30° C.; for enzymatic activity: 50 mg substrate, 250 mg wet pellet
Method: The enzymatic activity was evaluated using a bacterial pellet obtained after fermentation for 48 hours in fermentation medium as described below. Briefly, the culture was amplified from a single colony to begin with in a small volume of inoculating medium and then, for preparative purposes, in 100 ml of fermentation medium.
Fermentation medium: MgSO4 (0.5 g l^−1), ,CaCl2.6H2O (0.1 g l^−1), FeSO4 (0.4 g l^−1), CoCl2 (0.1 g l^−1), MnSO4 (0.01 g l^−1), (NH4)2SO4 (5 g l^−1), Yeast Extract (10 g l^31 1). The inducer, or the inducers, were added to the fermentation medium alone or in combination, sterilely, to a final concentration comprised of between 0.5-5 g/L. In particular, if not stated differently, valeronitrile, N-butyronitrile, isobutyronitrile and ε-caprolactam were used at a concentration respectively of 2.5 g/l and added in a single solution at the start of the process. To measure the basal activity of the strain 41108, no inducer was added to the fermentation medium.
Inoculation. […]
Reaction scheme. […] At preset time intervals, aliquots of the mixture were sterilely removed with a syringe, using a Minisart RC 25 filter 0,22 μm (Sartorius, Germany) and directly analysed by HPLC. The enzymatic activity was determined by the mean activity measured in the initial, linear phase of the conversion curve, relative to the wet weight of the bacterial paste. […]
Evaluation of the conversion percentages and of the enantiomeric excess. The percentage conversion of the substrate was measured by reverse phase HPLC using a reverse phase column of dimensions: 250×4.6 mm; 10 μm (Lichrosorb 10 RP18), and phosphate buffer at various percentages (10 mM, pH 2.5 e 3.5) with acetonitrile at 40 or 50% depending on the molecule to be detected. […] The e.e. values of the reaction products obtained from benzoylphenylpropionitrile were determined by HPLC fitted with a chiral column (dimensions: 100×4 mm; Chromtech AGP-column) and phosphate buffer used as eluent (10 mM, pH 7.0) with isopropanol (1%, v/v) and dimethyloctylamine (0,02%, v/v). […]

nitrile-hydratase/amidase activity [1]: weak
Structure (SMILES): CC(C#N)c1cccc(C(=O)c2ccccc2)c1 (racemic) [benzoylphenylpropionitrile, 2-(3-benzoylphenyl)propionitrile]

Structure (SMILES): CC(C#N)c1ccc(-c2ccccc2)c(F)c1 (stereo not drawn) [2-fluoro-α-methyl[1,1′-diphenyl]-4-acetonitrile]
enzymatic activity ([2]; pellet induced with valeronitrile 0,2%, 24 hours): 0.26 IU g^−1 of wet cells

Structure (SMILES): CC(C#N)c1cccc(Oc2ccccc2)c1 (stereo not drawn) [α-methyl-3-phenoxibenzen-acetonitrile]
enzymatic activity ([2]; pellet induced with valeronitrile 0,25%, 1 hour): 5.23 IU g^−1 of wet cells

Structure (SMILES): CC(C#N)c1ccccc1 (stereo not drawn) [α-methylbenzyl cyanide]
rate of transformation, times higher ([2]; pellet induced with valeronitrile and ε-caprolactam 0,25%, comparator not given): approximately 20 times
